According to PMC7680422 (European journal of medicinal chemistry, 2020):
Entries after “also recorded” stand apart in the source; their conditions may differ.

Key:
[1] = system: methamphetamine self-administration; details: short access and long access groups; cited from earlier work
[2] = system: Swiss Webster mice; experiment: Locomotor activity studies in mice; details: i.p., doses up to 30 mg/kg, distance travelled
[3] = Phase I metabolic stability in mouse liver microsomes; format: in vitro ADME
[4] = Phase I metabolic stability in rat liver microsomes; format: in vitro ADME
[5] = biological target: dopamine transporter (DAT) (Rattus norvegicus, UniProt P23977); experiment: DAT binding assay, [3H]WIN35,428, rat striatum membranes
Sequence of dopamine transporter (DAT) (P23977 whole entry): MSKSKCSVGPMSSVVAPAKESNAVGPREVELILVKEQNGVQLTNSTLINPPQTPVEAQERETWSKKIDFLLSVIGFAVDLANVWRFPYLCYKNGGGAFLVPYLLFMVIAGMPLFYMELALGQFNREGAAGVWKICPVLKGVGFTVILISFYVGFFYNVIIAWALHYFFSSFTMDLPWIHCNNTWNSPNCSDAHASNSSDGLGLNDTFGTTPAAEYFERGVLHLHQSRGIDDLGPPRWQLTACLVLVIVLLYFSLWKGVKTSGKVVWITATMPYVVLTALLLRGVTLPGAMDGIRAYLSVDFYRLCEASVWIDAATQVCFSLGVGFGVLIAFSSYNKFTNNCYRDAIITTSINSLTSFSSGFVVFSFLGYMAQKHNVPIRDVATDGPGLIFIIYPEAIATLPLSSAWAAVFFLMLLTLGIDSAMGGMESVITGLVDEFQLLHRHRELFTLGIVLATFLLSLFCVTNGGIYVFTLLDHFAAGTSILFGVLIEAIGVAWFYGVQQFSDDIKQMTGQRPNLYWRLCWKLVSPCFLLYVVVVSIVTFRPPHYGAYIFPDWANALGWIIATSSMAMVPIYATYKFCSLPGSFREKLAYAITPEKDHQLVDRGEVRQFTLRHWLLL

Structure (SMILES): CC(O)CN1CCN(CC[S+]([O-])C(c2ccc(F)cc2)c2ccc(F)cc2)CC1 (stereo not shown) [Compound 1]
- attenuation of methamphetamine self-administration (in words) [1]: effective in attenuating this behavior in both groups

Structure (SMILES): O=C(c1ccc(F)cc1F)N1CCC(NCCSC(c2ccc(F)cc2)c2ccc(F)cc2)CC1 [Compound 33, (4-((2-((Bis(4-fluorophenyl)methyl)thio)ethyl)amino)piperidin-1-yl)(2,4-difluorophenyl)methanone]
- stimulation of ambulatory activity (in words) [2]: only minimal stimulation of ambulatory activity
- metabolic stability / susceptibility to phase I metabolism (in words) [3]: susceptibility to phase I metabolism; also recorded: significantly less stable

Structure (SMILES): [O-][S+](CCNC1CCN(CC(O)Cc2ccccc2)CC1)C(c1ccc(F)cc1)c1ccc(F)cc1 (stereo not shown) [Compound 11, 1-(4-((2-((Bis(4-fluorophenyl)methyl)sulfinyl)ethyl)amino)piperidin-1-yl)-3-phenylpropan-2-ol]
- metabolic stability / susceptibility to phase I metabolism (in words) [4]: less stable; also recorded: susceptibility to phase I metabolism

Structure (SMILES): OC(CNC1CCN(CCSC(c2ccc(F)cc2)c2ccc(F)cc2)CC1)Cc1ccccc1 (stereo not shown) [Compound 16, 1-((1-(2-((Bis(4-fluorophenyl)methyl)thio)ethyl)piperidin-4-yl)amino)-3-phenylpropan-2-ol]
- metabolic stability / susceptibility to phase I metabolism (in words) [4]: relatively metabolically stable

Structure (SMILES): Fc1ccc(CN2CCC(NCCSC(c3ccc(F)cc3)c3ccc(F)cc3)CC2)cc1 [Compound 6b, N-(2-((Bis(4-fluorophenyl)methyl)thio)ethyl)-1-(4-fluorobenzyl)piperidin-4-amine]
- metabolic stability / susceptibility to phase I metabolism (in words) [4]: relatively metabolically stable

Structure (SMILES): [O-][S+](CCNC1CCN(Cc2ccc(F)cc2)CC1)C(c1ccc(F)cc1)c1ccc(F)cc1 (stereo not shown) [Compound 7, N-(2-((Bis(4-fluorophenyl)methyl)sulfinyl)ethyl)-1-(4-fluorobenzyl)piperidin-4-amine]
- stimulation of ambulatory activity (in words) [2]: only minimal stimulation of ambulatory activity
- metabolic stability / susceptibility to phase I metabolism (in words) [3]: susceptibility to phase I metabolism; also recorded: significantly less stable
- metabolic stability / susceptibility to phase I metabolism (in words) [4]: relatively metabolically stable

Structure (SMILES): OC(Cc1ccccc1)CN1CCC(NCCSC(c2ccc(F)cc2)c2ccc(F)cc2)CC1 (stereo not shown) [Compound 10, 1-(4-((2-((Bis(4-fluorophenyl)methyl)thio)ethyl)amino)piperidin-1-yl)-3-phenylpropan-2-ol]
- metabolic stability / susceptibility to phase I metabolism (in words) [4]: relatively metabolically stable

Structure (SMILES): O=C(c1ccccc1)N1CCC(NCC[S+]([O-])C(c2ccc(F)cc2)c2ccc(F)cc2)CC1 (stereo not shown) [Compound 21a, (4-((2-((Bis(4-fluorophenyl)methyl)sulfinyl)ethyl)amino)piperidin-1-yl)(phenyl)methanone]
- DAT over SERT selectivity [5]: ~100 fold

Structure (SMILES): O=C(c1ccc(F)cc1)N1CCC(NCC[S+]([O-])C(c2ccc(F)cc2)c2ccc(F)cc2)CC1 (stereo not shown) [Compound 21b, (4-((2-((Bis(4-fluorophenyl)methyl)sulfinyl)ethyl)amino)piperidin-1-yl)(4-fluorophenyl)methanone]
- stimulation of ambulatory activity (in words) [2]: only minimal stimulation of ambulatory activity
- metabolic stability / susceptibility to phase I metabolism (in words) [3]: susceptibility to phase I metabolism; also recorded: significantly less stable
- metabolic stability / susceptibility to phase I metabolism (in words) [4]: relatively metabolically stable

Structure (SMILES): CC(O)CN1CCN(CCSC(c2ccc(F)cc2)c2ccc(F)cc2)CC1 (stereo not shown) [Compound 3a]
- attenuation of methamphetamine self-administration (in words) [1]: effective only in the long access group

Structure (SMILES): COC(=O)[C@H]1[C@@H](OC(=O)c2ccccc2)C[C@@H]2CC[C@H]1N2C [cocaine, reference compound]
- stimulation of ambulatory activity (in words) [2]: large, significant increase in ambulatory activity

Structure (SMILES): O=C(c1ccc(F)cc1)N1CCC(NCCSC(c2ccc(F)cc2)c2ccc(F)cc2)CC1 [Compound 19b, (4-((2-((Bis(4-fluorophenyl)methyl)thio)ethyl)amino)piperidin-1-yl)(4-fluorophenyl)methanone]
- metabolic stability / susceptibility to phase I metabolism (in words) [4]: less stable; also recorded: susceptibility to phase I metabolism

Structure (SMILES): O=C(c1ccccc1)N1CCC(NCCSC(c2ccc(F)cc2)c2ccc(F)cc2)CC1 [Compound 19a, (4-((2-((Bis(4-fluorophenyl)methyl)thio)ethyl)amino)piperidin-1-yl)(phenyl)methanone]
- metabolic stability / susceptibility to phase I metabolism (in words) [4]: less stable; also recorded: susceptibility to phase I metabolism

Structure (SMILES): [O-][S+](CCN1CCN(CC(O)Cc2ccccc2)CC1)C(c1ccc(F)cc1)c1ccc(F)cc1 (stereo not shown) [Compound 2]
- attenuation of methamphetamine self-administration (in words) [1]: not effective in either rodent population
